Columns and labels:
[1] = target: T1, mutant ATXN1 protein (His-ATXN1-Q92) (Homo sapiens, UniProt P54253, INS208QQQQQQQQQQQQQQQQQQQQQQQQQQQQQQQQQQQQQQQQQQQQQQQQQQQQQQQQQQQQQQQQQQQQQQQQQQQQQQQQ); assay: HTRF of mutant ATXN1 level in HEK293T cells expressing His-ATXN1-Q92; type: cell-based; settings: 100 nM for 2 days, HTRF anti-His-Tb/MW1-D2
T1 construct: expressed in transfected cells; host or cells: HEK293T (ATCC, CRL-3216)

[2] = system: HD patient iPSC-derived neurons (Q47); assay: Neuronal apoptosis of HD patient iPSC-derived neurons after BDNF removal (TUBB3 immunostaining, caspase-3 activity); type: cell-based, human; settings: 100 nM compound 1 or 50 nM compound 2 for 1 day, then BDNF removal
Experimental: Immunofluorescence: cells were washed, fixed, permeabilized and blocked, then incubated with primary antibody overnight at 4° C., then washed three times with blocking buffer, and incubated with secondary antibody for 1 hour at room temperature, stained with DAPI, and mounted. Images were taken by Zeiss Axio Vert A1 confocal microscope. TUBB3 or co-localization was analyzed using ImageJ.
Then the cells were stressed (by BDNF removal).
Neuronal specific tubulin marker TUBB3 […]. The TUBB3 signal covered area was normalized to the cell nuclei counts, and the data was normalized to the wild type controls to analyze neuronal apoptosis (FIG. 12).
NucView 488 (Biotium, 30029) was used to detect active caspase-3. After removing BDNF, Incucyte (Essen Bioscience, IncuCyte FLR) was used to capture images every 3 hours in the incubator, which were analyze with Incucyte 2011A software. Three batches were tested and the results were consistent (FIG. 13).

Q25-GFP [3] = assay: Level of polyQ-GFP fusion protein in HEK293T cells (Incucyte fluorescence counting); type: cell-based; settings: 100 nM compound 1 or 50 nM compound 2 for 2 days
Text: (§1) The inventors used HEK293T cells exogenously expressing polyQ-GFP fusion proteins (Q72-GFP or Q25-GFP) to detect compounds that can control the level of proteins containing expanded polyglutamine in the cells. The method was as follows:
(§2) (1) PolyQ-GFP cDNA sequence (expressing Met-polyQ-GFP, wherein polyQ was Q72 or Q25) was synthesized de novo and subcloned into pcDNA vector. It was transfected into HEK293T cells (ATCC, CRL-3216) through forward transfection to obtain Q72-GFP expressing cells and Q25-GFP expressing cells, respectively. And the same method was used to obtain cells expressing Q53-GFP, cells expressing Q46-GFP, and cells expressing Q38-GFP.
(§3) (3) The Q72-GFP expressing cells and Q25-GFP expressing cells obtained in step (1) were used. […] Then the level of polyQ-GFP was measured by Incucyte fluorescence counting (FIG. 1).

Q72-GFP = assay: as above; type: cell-based; settings: 100 nM compound 1 or 50 nM compound 2 for 2 days
Text: as §1, §2, §3

[4] = target: T2, full-length mHTT (flHTT-Q73) (Homo sapiens, UniProt P42858, INS38QQQQQQQQQQQQQQQQQQQQQQQQQQQQQQQQQQQQQQQQQQQQQQQQQQQQ); assay: OI-RD detection of affinity to full-length HTT; type: binding
T2 construct: protein A (N, cleaved yes); made in house; host or cells: human embryonic kidney E293 cells
Experimental: (1) The human HTT gene (GenBank: NM_002111.8) with (CAG)23 or (CAG)73 was synthesized de novo by Genewiz Inc. The human HTT gene was cloned into the modified pCAG vector (from Addgene) with N-terminal protein A tag.
The protein is purified with IgG monoclonal antibody-agarose (Smart-lifesciences, SA030010), digested with TEV protease to remove the protein A tag, and further purified with Mono Q and Superose 6 (5/150 GL) columns from GE healthcare. Validation is conducted using Coomassie blue staining and Western-blots.

[5] = target: T3, human HTT full-length protein (Q128) (Homo sapiens, UniProt P42858); assay: mHTT level in heads of Huntington's disease Drosophilae (HTRF); type: in vivo, Drosophila; settings: food with 10 μM in 400 μL DMSO, 6 days, head protein, HTRF 2B7/MW1
T3 construct: transgenic Drosophilae expressing human HTT full-length protein (Q128); tissue Bloomington Drosophila Stock Center (fly lines); host or cells: heads of elav-GAL4 x UAS-fl-HTT-Q128 Drosophila
Experimental: Crosses were set up between virgin female Drosophilae carrying elav-GAL4 driver and the UAS-fl-HTT-Q16 or UAS-fl-HTT-Q128 male Drosophilae to generate a transgenic Drosophilae driven by elav-GAL4 to express human HTT full-length protein (Q16) or (Q128) in the nervous system.
The negative control group was given the corresponding solvent DMSO, and the positive drug groups was given the corresponding positive drug.
Drosophilae were kept in standard food at 25° C. The newly hatched Drosophilae were transferred to vials with food containing the positive drug (10 μM in 400 μL DMSO) or DMSO for control. The corn food was changed every other day.
The mHTT level was measured by HTRF (antibody pair: 2B7/MW1), where each sample included head proteins from five Drosophila (FIG. 14).

[6] = target: T4, mutant ATXN3 protein (ATXN3-Q74) (Homo sapiens, UniProt P54252, G306R/INS305QQQQQQQQQQQQQQQQQQQQQQQQQQQQQQQQQQQQQQQQQQQQQQQQQQQQQQQQQQQQQQQQ/V212M); assay: Western-blot of ATXN3 level in SCA3 patient fibroblasts (Q74); type: cell-based; settings: 100 nM compound 1 or 50 nM compound 2 for 2 days, Western-blots
T4 construct: endogenous in cells; host or cells: SCA3 patient fibroblasts (Q74)
T4 sequence (P54252 with tags, fused parts or gaps isoform P54252-1 with the stated changes): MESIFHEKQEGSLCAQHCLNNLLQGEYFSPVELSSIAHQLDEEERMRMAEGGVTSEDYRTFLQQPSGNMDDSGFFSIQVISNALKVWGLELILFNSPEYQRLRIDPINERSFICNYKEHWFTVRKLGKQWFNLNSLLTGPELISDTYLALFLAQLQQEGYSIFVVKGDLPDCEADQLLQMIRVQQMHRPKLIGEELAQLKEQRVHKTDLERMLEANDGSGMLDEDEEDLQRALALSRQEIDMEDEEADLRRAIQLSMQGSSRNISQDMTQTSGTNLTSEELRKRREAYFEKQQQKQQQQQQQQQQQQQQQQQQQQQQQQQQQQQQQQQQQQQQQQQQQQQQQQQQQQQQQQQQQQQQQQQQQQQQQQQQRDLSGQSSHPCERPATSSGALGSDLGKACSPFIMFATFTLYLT
Experimental: (§4) Some primary patient fibroblasts and wild-type cells are from HD patients (Q47, Q55) of the Mongolian Huntington's disease family and healthy controls (WT, Q19). SCA3 cell line was from patient (Q74). The HD Q68 fibroblast cell line was from Coriell Cell Repositories (Camden, N.J., USA). Immortalized fibroblasts and induced stem cells (iPSCs) are prepared from primary fibroblasts. HEK293T cells were from ATCC.
(§5) Then the levels of mutant ATXN3 protein (ATXN3-Q74, SEQ ID NO: 3) and wild-type ATXN3 protein (ATXN3-Q27, SEQ ID NO: 4) were determined by Western-blots (FIG. 22). […] Therefore, the compound can be used to treat SCA3.

mHTT [7] = target: T5, mHTT (Homo sapiens, UniProt P42858, INS38QQQQQQQQQQQQQQQQQQQQQQQQQQ); assay: HTRF of mHTT in HD patient iPSC-derived neurons (Q47); type: cell-based
T5 construct: endogenous in cells; host or cells: HD patient iPSC-derived neurons (Q47)

wtHTT [8] = target: T6, wtHTT (Mus musculus, UniProt P42859); assay: Western-blot of HTT levels in primary cultured Hdh^Q7/Q7 mouse cortical neurons; type: cell-based; parameters: endogenous in cells; host or cells: primary cortical neurons of newborn Hdh Q140/Q7 or Hdh Q7/Q7 mice; settings: treated 2 days, Western-blots (antibody 2166)
T6 sequence (P42859 whole entry): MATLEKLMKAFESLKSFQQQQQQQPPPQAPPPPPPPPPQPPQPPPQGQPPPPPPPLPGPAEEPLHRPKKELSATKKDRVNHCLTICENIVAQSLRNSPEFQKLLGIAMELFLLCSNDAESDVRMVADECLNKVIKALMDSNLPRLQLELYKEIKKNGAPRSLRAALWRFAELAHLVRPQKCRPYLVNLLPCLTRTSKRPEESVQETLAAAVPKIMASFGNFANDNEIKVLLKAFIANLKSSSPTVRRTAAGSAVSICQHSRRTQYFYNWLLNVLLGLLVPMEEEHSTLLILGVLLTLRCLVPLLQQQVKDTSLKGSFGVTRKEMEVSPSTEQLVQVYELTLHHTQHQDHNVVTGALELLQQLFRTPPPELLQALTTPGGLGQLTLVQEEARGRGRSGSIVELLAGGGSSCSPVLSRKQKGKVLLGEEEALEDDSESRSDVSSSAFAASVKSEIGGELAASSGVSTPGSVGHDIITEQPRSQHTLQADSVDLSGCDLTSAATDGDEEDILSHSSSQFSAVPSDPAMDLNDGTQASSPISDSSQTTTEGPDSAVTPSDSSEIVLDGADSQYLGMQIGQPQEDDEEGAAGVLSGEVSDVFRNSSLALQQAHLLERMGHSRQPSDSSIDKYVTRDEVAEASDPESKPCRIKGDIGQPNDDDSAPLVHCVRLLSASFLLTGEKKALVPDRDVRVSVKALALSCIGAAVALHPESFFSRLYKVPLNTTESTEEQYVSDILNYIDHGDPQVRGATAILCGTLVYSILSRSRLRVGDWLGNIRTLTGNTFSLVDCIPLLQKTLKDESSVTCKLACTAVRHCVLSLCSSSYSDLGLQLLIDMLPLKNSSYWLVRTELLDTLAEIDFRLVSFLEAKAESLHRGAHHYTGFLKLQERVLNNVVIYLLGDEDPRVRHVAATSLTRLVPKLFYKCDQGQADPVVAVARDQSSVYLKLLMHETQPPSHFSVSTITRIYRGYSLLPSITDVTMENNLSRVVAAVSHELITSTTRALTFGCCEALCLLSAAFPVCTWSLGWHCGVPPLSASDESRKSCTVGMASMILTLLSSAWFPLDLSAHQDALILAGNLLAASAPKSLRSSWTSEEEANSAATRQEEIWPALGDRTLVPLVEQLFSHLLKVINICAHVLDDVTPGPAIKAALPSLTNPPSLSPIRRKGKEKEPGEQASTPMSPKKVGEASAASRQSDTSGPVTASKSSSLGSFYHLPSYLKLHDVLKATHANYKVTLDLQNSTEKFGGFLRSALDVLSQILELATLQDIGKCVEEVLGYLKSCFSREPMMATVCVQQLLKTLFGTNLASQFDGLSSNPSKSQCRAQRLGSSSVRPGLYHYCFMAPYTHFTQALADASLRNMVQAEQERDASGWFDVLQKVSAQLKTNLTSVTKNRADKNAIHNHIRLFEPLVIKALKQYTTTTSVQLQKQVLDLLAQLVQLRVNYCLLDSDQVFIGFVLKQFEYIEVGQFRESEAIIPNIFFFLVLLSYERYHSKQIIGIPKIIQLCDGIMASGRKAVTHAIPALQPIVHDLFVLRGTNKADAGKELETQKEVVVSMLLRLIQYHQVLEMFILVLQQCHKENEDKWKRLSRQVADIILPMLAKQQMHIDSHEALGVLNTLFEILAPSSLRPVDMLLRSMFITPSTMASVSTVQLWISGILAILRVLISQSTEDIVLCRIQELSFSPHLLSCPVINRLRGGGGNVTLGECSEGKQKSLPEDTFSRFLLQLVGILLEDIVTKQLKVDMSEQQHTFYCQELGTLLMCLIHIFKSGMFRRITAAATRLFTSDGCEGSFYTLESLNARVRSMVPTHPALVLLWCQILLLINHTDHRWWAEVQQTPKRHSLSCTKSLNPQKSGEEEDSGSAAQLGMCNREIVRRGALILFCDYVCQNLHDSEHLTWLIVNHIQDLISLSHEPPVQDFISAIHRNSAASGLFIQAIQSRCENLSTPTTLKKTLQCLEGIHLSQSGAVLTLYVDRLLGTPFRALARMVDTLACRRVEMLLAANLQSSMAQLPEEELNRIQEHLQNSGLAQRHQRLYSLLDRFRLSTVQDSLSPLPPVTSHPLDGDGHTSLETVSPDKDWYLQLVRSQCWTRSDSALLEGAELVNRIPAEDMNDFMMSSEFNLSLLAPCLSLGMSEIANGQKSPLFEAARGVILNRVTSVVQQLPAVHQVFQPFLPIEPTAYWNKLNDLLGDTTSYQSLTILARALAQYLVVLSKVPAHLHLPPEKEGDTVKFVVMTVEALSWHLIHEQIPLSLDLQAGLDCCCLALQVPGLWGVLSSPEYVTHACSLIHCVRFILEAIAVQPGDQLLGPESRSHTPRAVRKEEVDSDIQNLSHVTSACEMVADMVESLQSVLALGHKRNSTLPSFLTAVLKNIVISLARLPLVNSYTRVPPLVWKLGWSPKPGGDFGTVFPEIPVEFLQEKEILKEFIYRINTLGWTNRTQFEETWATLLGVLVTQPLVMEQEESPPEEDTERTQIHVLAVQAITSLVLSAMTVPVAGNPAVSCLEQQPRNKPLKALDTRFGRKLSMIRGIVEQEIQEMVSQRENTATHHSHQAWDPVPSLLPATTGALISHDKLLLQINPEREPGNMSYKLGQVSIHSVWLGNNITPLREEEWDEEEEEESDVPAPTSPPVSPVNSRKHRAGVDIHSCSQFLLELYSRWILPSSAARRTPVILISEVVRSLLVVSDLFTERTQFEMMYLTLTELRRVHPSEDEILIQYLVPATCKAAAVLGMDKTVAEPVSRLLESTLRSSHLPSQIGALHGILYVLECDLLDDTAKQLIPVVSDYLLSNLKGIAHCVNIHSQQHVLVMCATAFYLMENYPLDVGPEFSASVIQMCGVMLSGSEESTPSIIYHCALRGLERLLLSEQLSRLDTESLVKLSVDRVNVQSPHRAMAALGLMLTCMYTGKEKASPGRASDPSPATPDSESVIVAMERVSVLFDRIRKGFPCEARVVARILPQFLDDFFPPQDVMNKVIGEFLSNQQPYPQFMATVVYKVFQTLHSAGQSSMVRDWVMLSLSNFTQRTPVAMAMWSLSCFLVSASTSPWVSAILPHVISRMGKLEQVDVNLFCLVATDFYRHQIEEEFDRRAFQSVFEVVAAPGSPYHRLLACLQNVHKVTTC
Experimental: (§6) Primary cultured cortical neurons: The brains of Hdh^Q140/Q7 and Hdh^Q7/Q7 newborn mice (P0) were dissected, digested, dissociated, and cultured.
(§7) (1) The primary cultured Hdh^Q140/Q7 and Hdh^Q7/Q7 mouse cortical neuron cells were treated with the compound for 2 days. Then the levels of mHTT and wtHTT were detected by Western-blots (antibody 2166) (FIG. 4 and FIG. 5). […]

wtHTT [9] = target: T6, wtHTT; settings: Hdh^Q140/Q7 mouse cortical neurons, treated 2 days, Western-blots (antibody 2166)
Experimental: as §6
(1) The primary cultured Hdh^Q140/Q7 and Hdh^Q7/Q7 mouse cortical neuron cells were treated with the compound for 2 days.

[10] = target: T7, wild-type ATXN3 protein (ATXN3-Q27) (Homo sapiens, UniProt P54252, G306R/INS305QQQQQQQQQQQQQQQQQ/V212M); assay: Western-blot of ATXN3 level in fibroblasts; type: cell-based; settings: 100 nM compound 1 or 50 nM compound 2 for 2 days; Western-blots
T7 construct: endogenous in cells; host or cells: wild-type fibroblasts (Q27), and possibly the normal allele of SCA3 patient fibroblasts
T7 sequence (P54252 with tags, fused parts or gaps isoform P54252-1 with the stated changes): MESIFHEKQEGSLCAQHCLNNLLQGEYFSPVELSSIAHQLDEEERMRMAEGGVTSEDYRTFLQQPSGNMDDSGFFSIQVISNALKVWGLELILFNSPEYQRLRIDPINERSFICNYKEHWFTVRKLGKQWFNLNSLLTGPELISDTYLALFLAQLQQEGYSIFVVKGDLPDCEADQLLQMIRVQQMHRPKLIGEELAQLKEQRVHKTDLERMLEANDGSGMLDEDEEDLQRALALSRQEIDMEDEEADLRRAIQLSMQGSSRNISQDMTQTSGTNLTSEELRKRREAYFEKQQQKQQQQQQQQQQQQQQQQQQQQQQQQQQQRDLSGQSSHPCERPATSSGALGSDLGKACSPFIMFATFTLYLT
Experimental: as §4, §5

mHTT [11] = assay: Western-blot of HTT levels in primary cultured Hdh^Q140/Q7 mouse cortical neurons; type: cell-based; settings: treated 2 days, Western-blots (antibody 2166)
Experimental: as §6, §7

mHTT aggregates = mHTT aggregates in cortices of Hdh^Q140/Q7 mice (dot-blot, HTRF 4C9/4C9); type: in vivo, mouse; settings: ip-injection, dot-blot 4C9 and HTRF 4C9/4C9
Experimental: (§8) Experimental method: The compound or control DMSO was diluted with 0.9% NaCl intravenous infusion solution to 0.05 μg/μL. One ip-injection (0.5 mg/kg) was conducted per day. After 14 days of injection, tissue extraction or behavioral experiment were conducted.
(3) mHTT aggregates in the cortices of Hdh^Q140/Q7 mice were detected by dot-blot experiment (antibody: 4C9, bar plot showing the results of two repetitions) and HTRF (antibody pair: 4C9/4C9). Sampling was repeated for each mouse two to three times on average (FIG. 20).

Q25-GFP [12] = settings: MST; 20 mM HEPES, pH 7.4, 150 mM NaCl; protein 500 nM
[13] = In vivo compound detection in brain tissues of ip-injected mice (LC-MS/MS); settings: mouse, 2 hours after ip-injection (0.5 mg/kg), read-out: level of compound reached the brain tissue
Experimental: as §8
In vivo compound detection in brain tissues of ip-injected mice: 2 hours after ip-injection of DMSO or compound in mice, the brain was dissected, weighed, and the compound in the brain tissue was extracted, analyzed with UPLC-MS (Acquity Ultra Performance Liquid Chromatography System, Acquity UPLC BEH C18 (1.7 μm, 2.1×50 mm) column and Xevo TQ-S mass spectrometer, Waters Corporation, Milford, MA, USA) for LC-MS/MS analysis. […] The compound of the present invention can be delivered to the brain of mice through the BBB smoothly, which potentially facilitates oral administration of the compound.

mHTT [14] = assay: HTRF of mHTT in HD patient immortalized fibroblasts; settings: at different doses (FIG. 10)
Experimental: Homogeneous time-resolved fluorescence (HTRF) analysis: the cell or tissue lysate was diluted with the original lysis buffer PBS+1% (v/v) Triton X-100+1×cOmplete™ protease inhibitor to lyse the sample, then HTRF assay buffer (50 mM NaH2PO4, 400 mM NaF, 0.1% BSA, 0.05% (v/v) Tween-20, 1% (v/v) Triton X-100, pH 7.4) was used to dilute the specified antibody pair for detection. In HTRF buffer, the donor antibody concentration was 0.023 ng/μL and the acceptor antibody concentration was 1.4 ng/μL.

mHTT [15] = assay: Intracerebroventricular injection: mHTT and wtHTT levels in cortices of HD mice (Western-blots); type: in vivo, mouse; settings: Hdh^Q140/Q7 mice; icv 2 μL of 25 μM per day, 10 days; Western-blots (antibody 2166)
Experimental: Mice expressing wild-type HTT gene (Hdh^Q7/Q7) were from the Marian Difiglia laboratory of Massachusetts General Hospital, Harvard University.
Experimental animals: Hdh^Q140/Q7 mice (3 months old), 4 in each group.
Each test includes three repetitions for each sample, and the mean values was calculated (FIG. 17).

[16] = target: T8, normal ATXN3 protein (MBP-ATXN3-Q28) (Homo sapiens, UniProt P54252, INS305QQQQQQQQQQQQQQQQQQ); assay: MST detection of affinity to ATXN3; type: binding; settings: method in 2.2
T8 construct: His8; made in house; host or cells: Escherichia coli Rosetta(DE3)pLysS
Experimental: (1) His8 tag and TEV protease cleavage site is added in pMal-C2x plasmid (from New England Biolabs) to prepare prokaryotic expression vector pMBP. The ATXN3 gene (GenBank: NM_001127696.2) is edited to control the length of the expanded polyglutamine, the gene is amplified and cloned into the prepared pMBP to obtain the pMBP-ATXN3-Q28 and pMBP-ATXN3-Q68 plasmids with polyQ repeated 28 and 68 times, respectively.
(2) The expression plasmids pMBP-ATXN3-Q28 and pMBP-ATXN3-Q68 were introduced into Escherichia coli Rosetta(DE3)pLsyS for expression. Preliminary purification was conducted with HisTrap HP column (GE Healthcare, 17524701). The product was concentrated by ultrafiltration and then further purified with Superose 6 Increase 10/300 GL size exclusion column (GE Healthcare).
(3) As verified by SDS-PAGE, the purity of the prepared human MBP-ATXN3-Q28 and MBP-ATXN3-Q68 exceeds 98%.

mHTT [17] = assay: Intraperitoneal injection: mHTT and wtHTT levels in cortices and striata of HD mice (Western-blots); type: in vivo, mouse; settings: Hdh^Q140/Q7 mice, ip 0.5 mg/kg per day, 14 days
Experimental: as §8
(1) 13 Hdh^Q140/Q7 mice (5 months old) were randomized into 2 groups.
One ip-injection was conducted per day. After 14 days of injection, the protein was extracted and the levels of mHTT and wtHTT in the cortices of HD mice were detected by Western-blots (FIG. 18).
(2) A total of 13 mice Hdh^Q140/Q7 mice (10 months old) were used, 6-7 mice in each group. According to the above method, the mouse brain striatum neuronal protein was extracted and the levels of mHTT and wtHTT were detected by Western-blots (FIG. 19).

T1 sequence (P54253 with tags, fused parts or gaps with the stated changes): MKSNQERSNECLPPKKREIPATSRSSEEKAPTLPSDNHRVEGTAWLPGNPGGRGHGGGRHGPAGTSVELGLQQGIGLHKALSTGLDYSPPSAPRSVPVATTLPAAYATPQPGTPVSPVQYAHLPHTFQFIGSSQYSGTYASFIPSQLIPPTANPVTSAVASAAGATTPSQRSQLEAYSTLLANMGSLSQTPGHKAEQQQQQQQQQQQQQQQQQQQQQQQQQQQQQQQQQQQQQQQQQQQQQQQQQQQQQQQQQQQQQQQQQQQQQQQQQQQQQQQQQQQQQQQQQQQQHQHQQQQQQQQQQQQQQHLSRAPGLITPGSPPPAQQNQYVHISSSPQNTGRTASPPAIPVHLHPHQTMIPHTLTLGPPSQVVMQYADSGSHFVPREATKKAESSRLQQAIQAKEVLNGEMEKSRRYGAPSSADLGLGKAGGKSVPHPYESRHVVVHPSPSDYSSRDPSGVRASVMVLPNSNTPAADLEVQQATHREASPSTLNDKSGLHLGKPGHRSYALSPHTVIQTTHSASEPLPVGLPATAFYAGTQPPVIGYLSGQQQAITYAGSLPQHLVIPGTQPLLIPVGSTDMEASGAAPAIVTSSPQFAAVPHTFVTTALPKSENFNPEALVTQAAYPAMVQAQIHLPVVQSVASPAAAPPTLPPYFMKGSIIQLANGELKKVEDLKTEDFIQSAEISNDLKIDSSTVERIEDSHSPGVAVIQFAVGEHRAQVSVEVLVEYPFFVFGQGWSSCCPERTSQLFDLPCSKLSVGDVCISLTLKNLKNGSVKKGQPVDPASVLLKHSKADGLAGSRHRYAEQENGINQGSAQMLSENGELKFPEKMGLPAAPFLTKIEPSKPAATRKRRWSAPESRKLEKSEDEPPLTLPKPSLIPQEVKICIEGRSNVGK

Structure (SMILES) | levels of mutant ATXN1 [1] | loss of processes and shrinkage of HD neurons after removal of BDNF [2] | level of the protein containing the shorter polyglutamine (Q25-GFP) (Q25-GFP [3]) | level of the protein containing expanded polyglutamine (Q72-GFP) (Q72-GFP) | mutant ATXN3 protein level [6] | wild-type ATXN3 protein level [10] | level of mHTT in cortical neurons (mHTT [11]) | further results
COc1ccc2c(c1)/C(=C/c1cnc[nH]1)C(=O)N2 [compound 4, Su9516] | Decreased levels | – | – | – | – | – | – | –
Cc1ccc(C(=O)N(CCCN)[C@@H](c2nc3cc(Cl)ccc3c(=O)n2Cc2ccccc2)C(C)C)cc1 [compound 1, ispinesib] | Decreased levels | significantly improved | did not reduce | effectively reduced | decrease | no decrease | reduced | Kon [4]: 6.43e-05 min/nM; mHTT levels in transgenic Drosophilae [5]: reduced; mHTT levels in HD patient iPSC-derived neurons (mHTT [7]; neurons Q47, HTRF 2B7/MW1, method similar to 5.1): Decreased mHTT levels; wtHTT levels in cortical neurons (wtHTT [8]): did not reduce; level of wtHTT in cortical neurons (wtHTT [9]): hardly affected
O=c1cc(-c2ccccc2)c2ccc(O)c(O)c2o1 [compound 6] | Decreased levels | – | – | – | – | – | – | –
O=c1cc(-c2ccccc2)c2c(O)cc(O)cc2o1 [compound 2] | Decreased levels | significantly improved | did not reduce | effectively reduced | decrease | no decrease | reduced | mHTT aggregates in the cortices (mHTT aggregates): No increase in mHTT aggregates; binding affinity with Q25-GFP (Q25-GFP [12]): no binding affinity; concentration at 2 h [13]: 9.48 ng/g; level of mHTT in HD patient immortalized fibroblasts (mHTT [14]): reduced; mHTT level in cortices (mHTT [15]): significantly reduced; binding with normal ATXN3 protein (MBP-ATXN3-Q28) [16]: did not bind; levels of mHTT in the cortices (mHTT [17]): reduced; levels of mHTT in the striata (mHTT [17]): reduced
CC(=O)Nc1cc2ccccc2oc1=O [compound 5] | – | – | – | – | – | – | – | reduction of mHTT levels in HD patient iPSC-derived neurons (mHTT [7]; HTRF 2B7/MW1, same method as for compounds 1 and 2): approximately 26.8%

Reference: patent US12409161B2, “Compound for treating neurodegenerative disorders” (FUDAN UNIVERSITY, priority 2019, dated 2025)
